Patent publication US5545639A, “Method of inhibiting transformed cells” (The United States of America as represented by the …, priority 1994, dated 1996)

Key:
[1] = tested on: DMS 273; assay: Dose response of growth, tumor cell line; assay type: cell-based; details: Homo sapiens, DMS 273, small cell lung cancer
[2] = mouse
[3] = tested on: P388/ADR; assay: Dose response of growth, tumor cell line; assay type: cell-based, murine; details: miscellaneous
Procedure: (§1) Indeed, 70% of the cell lines were shown not only to experience precluded growth, but cell death, when exposed to less then 100 μM of the active ingredient.

[4] = tested on: P388; assay: Dose response of growth, tumor cell line; assay type: cell-based, murine; details: P388, miscellaneous
Procedure: as §1

[5] = tested on: L1210 mouse cells; assay: Example 3: growth of L1210 mouse cells with bis(halomethyl)phenanthrolines plus copper, with or without BCS; assay type: cell-based; details: at highest concentration tested (3 μM); copper 10 μM, BCS 100 μM
Procedure: Bis(halomethyl)phenanthroline compounds were synthesized according to the method of Newkome et al., J. Org. Chem., 48, 5112-5114 (1983). Such compounds, namely, 2,9-bis(bromomethyl)phenanthroline and 2,9-bis(chloromethyl)phenanthroline, were added in the presence of copper, but with or without BCS (the copper chelator shown in Examples 1 and 2 to reduce inhibitory activity), to the culture media of L1210 mouse cells, using the same methods of Examples 1 and 2. The concentrations of copper and BCS used in these experiments were 10 μM and 100 μM, respectively. The growth of the cells as a percent of control were determined, and the results plotted in the graph of FIG. 3, wherein open squares (.quadrature.) represent the compound plus copper chelate and solid squares (.box-solid.) represent the compound together with both copper and BCS addition to the culture medium.

[6] = Mus musculus, read-out: 50% Growth (Relative to Control)
[7] = Mus musculus, read-out: No Growth (Relative to Control)

With `ClCc1ccc2ccc3ccc(CCl)nc3c2n1` [2,9-bis(chloromethyl)-1,10-phenanthroline] the IC50 ([1]; read-out: 50% Growth (Relative to Control)) was 2840 nM, the IC100 ([1]; read-out: No Growth (Relative to Control)) was > 100 µM and the “tolerated in vivo concentration relative to 100 μM in vitro” value [2] was “at least 8.5 times”. The “toxicity in an animal” value ([2]; in vivo, 250 mg/kg) was “not toxic”, the “tolerability in mammals compared with the brominated derivative” value ([2]; in vivo, ip) was “better tolerated” and the IC50 [3, 6] was 355 nM. The IC100 [3, 7] was 3.82 µM, the CC50 ([3]; read-out: 50% Loss (50% kill)) was > 100000 nM and the IC50 [4, 6] was 735 nM. The IC100 [4, 7] was 3.01 µM, the CC50 ([4]; read-out: 50% Loss (50% kill)) was 25100 nM and the “difference between the copper-chelated and the unchelated derivative” value [5] was 10%.
